From article PMC11794977, “Inhibitory Potential and Binding Thermodynamics of Scyllatoxin‐Based BH3 Domain Mimetics Targeting Repressor BCL2 Proteins” (Journal of Molecular Recognition, 2025)
Where a SMILES comes first, the peptide text is derived from it.

What was measured:
Bcl‐2‐ΔTM [1] = molecular target: Bcl‐2‐ΔTM (UniProt P10415); assay: Isothermal titration calorimetry (ITC); type: binding; settings: 25°C; for n (number of sites): 20 μM Bcl‐2‐ΔTM in cell, 200 μM peptide injected; for n (number of sites) / TΔS / ΔH: binding buffer pH 8.0, ± SD, SD; for ΔG: binding buffer pH 8.0, calculated as ΔH − TΔS
Description: All ITC experiments were performed in triplicate using a MicroCal 200 ITC instrument (Malvern Panalytical) at 25°C. To initiate ITC experiments, the sample cell was filled with 250 μL of binding buffer supplemented with 20 μM Bcl‐2‐ΔTM. Acetylated peptides were then diluted to a final concentration of 200 μM in binding buffer and injected into the sample cell at 2 μL volumes using a 6 s injection time and a 150 s delay between each injection. Data analysis was performed using MicroCal Origin software v7.0. Non‐linear curves were fit using Equation (3) adapted from the instrument manual: (3) ΔQ=nMtΔHVo/21+Xt/nMt+1/nKaMt−1+Xt/nMt+1/nKaMt^2−4Xt/nMt where, ΔQ is the heat content released or absorbed by each injection. ΔH is the enthalpy change of ligand binding and M t is bulk concentration of Bcl‐2‐ΔTM. V o is the cell volume of Bcl‐2‐ΔTM and K a is the affinity constant. X t is bulk concentration of peptide and n is the number of sites occupied by the peptide. Dissociation constants (K d) for all peptides were calculated by taking the reciprocal of the K a .
ΔG values were calculated from the Gibbs free energy Equation (4) using Origin‐fitted values of ΔH and program‐calculated values of ΔS. (4) ΔG=ΔΗ−ΤΔS

Bcl‐2‐ΔTM [2] = molecular target: Bcl‐2‐ΔTM (UniProt P10415); assay: FP competitive binding assay; settings: fluorescence polarization; 100 nM Bcl‐2‐ΔTM and 25 nM ^FluBax‐BH3^ΔB pre-incubated 1 h, competitor 100 μM to 2.3 pM, further 1 h, ambient temperature; binding buffer 50 mM Tris, 100 mM NaCl, pH 8.0; triplicate; read-out: IC50 (competition with ^FluBax‐BH3^ΔB for Bcl‐2‐ΔTM)
Description: FP competitive binding assays were performed in triplicate on black 384‐well plates (#3575, Corning, Corning, NY) using a SpectraMax M5e multi‐mode plate reader (Molecular Devices, Sunnyvale, CA). For these experiments, 100 nM Bcl‐2‐ΔTM and 25 nM ^FluBax‐BH3^ΔB were initially co‐incubated for 1 h in binding buffer at ambient temperature in the dark. Following pre‐incubation, serial dilutions of acetylated peptides (100 μM to 2.3 pM) were added, and the solutions were allowed to incubate for an additional 1 h at ambient temperature in the dark. This incubation time was deemed sufficient for binding reactions to reach equilibrium, as judged by an absence of change in the observed polarization value of the sample with the lowest protein concentration over 4 h (data not shown). Following incubation, the fluorescence polarization of each sample was measured using an excitation wavelength of 498 nm and an emission wavelength of 525 nm. An average of 100 reads were recorded for each well. […]

Chain of Bcl‐2‐ΔTM (P10415 whole entry, stated change not applied): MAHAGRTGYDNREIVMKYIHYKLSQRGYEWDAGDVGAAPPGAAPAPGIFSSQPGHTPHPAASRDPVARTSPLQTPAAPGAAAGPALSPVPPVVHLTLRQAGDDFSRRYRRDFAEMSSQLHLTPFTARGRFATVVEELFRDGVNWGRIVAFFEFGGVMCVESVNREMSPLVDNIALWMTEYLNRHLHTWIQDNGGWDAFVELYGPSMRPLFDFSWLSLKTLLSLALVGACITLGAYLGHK

Compound: CC[C@H](NC(=O)[C@H](CO)NC(=O)CNC(C)=O)C(=O)N[C@@H](CCCCN)C(=O)N[C@@H](CCCCN)C(=O)N[C@@H](CC(C)C)C(=O)N[C@@H](CO)C(=O)N[C@H]1CSSC[C@@H](C(=O)N[C@@H](CCC(=O)O)C(=O)N[C@@H](CC)C(=O)N[C@H](C(=O)N[C@@H](CCCCN)C(=O)N[C@@H](Cc2c[nH]cn2)C(N)=O)C(C)C)NC(=O)[C@H](CCCCN)NC(=O)[C@H](CC(=O)O)NC(=O)CNC(=O)[C@H]([C@@H](C)CC)NC(=O)[C@H](CC)NC(=O)[C@H](CCCCN)NC(=O)CNC(=O)[C@H](CC(C)C)NC(=O)[C@H](CC(C)C)NC(=O)CNC(=O)[C@H](CC(=O)O)NC(=O)CNC(=O)[C@H]([C@@H](C)CC)NC(=O)[C@H](CC)NC(=O)[C@H](CCCCN)NC(=O)[C@H](CC(C)C)NC(=O)[C@H](CC)NC1=O [^AcScTx‐Bax^ΔΔ,8–26] (HELM PEPTIDE1{[ac].G.S.[Abu].K.K.L.S.C.[Abu].L.K.[Abu].I.G.D.G.L.L.G.K.[Abu].I.G.D.K.C.E.[Abu].V.K.H.[am]}$PEPTIDE1,PEPTIDE1,9:R3-27:R3$$$V2.0)
- n (number of sites) (Bcl‐2‐ΔTM [1]; 3 trials): 1.13 ± 0.08
- ΔG (Bcl‐2‐ΔTM [1]; ± SD, 3 trials): -7.51 ± 0.12 kcal/mol
- TΔS (Bcl‐2‐ΔTM [1]; 3 trials): 1.63 ± 0.03 kcal/mol
- ΔH (Bcl‐2‐ΔTM [1]; 3 trials): -5.88 ± 0.15 kcal/mol

Compound: CC[C@H](NC(=O)[C@H](CO)NC(=O)CNC(C)=O)C(=O)N[C@@H](CCCCN)C(=O)N[C@@H](CCCCN)C(=O)N[C@@H](CC(C)C)C(=O)N[C@@H](CO)C(=O)N[C@@H](CC)C(=O)N[C@@H](CC)C(=O)N[C@@H](CC(C)C)C(=O)N[C@@H](CCCCN)C(=O)N[C@@H](CC)C(=O)N[C@H](C(=O)NCC(=O)N[C@@H](CC(=O)O)C(=O)NCC(=O)N[C@@H](CC(C)C)C(=O)N[C@@H](CC(C)C)C(=O)NCC(=O)N[C@@H](CCCCN)C(=O)N[C@@H](CC)C(=O)N[C@H](C(=O)NCC(=O)N[C@@H](CC(=O)O)C(=O)N[C@@H](CCCCN)C(=O)N[C@@H](CC)C(=O)N[C@@H](CCC(=O)O)C(=O)N[C@@H](CC)C(=O)N[C@H](C(=O)N[C@@H](CCCCN)C(=O)N[C@@H](Cc1c[nH]cn1)C(N)=O)C(C)C)[C@@H](C)CC)[C@@H](C)CC [^AcScTx‐Bax^ΔΔΔ] (HELM PEPTIDE1{[ac].G.S.[Abu].K.K.L.S.[Abu].[Abu].L.K.[Abu].I.G.D.G.L.L.G.K.[Abu].I.G.D.K.[Abu].E.[Abu].V.K.H.[am]}$$$$V2.0)
- n (number of sites) (Bcl‐2‐ΔTM [1]; 3 trials): 0.90 ± 0.09
- ΔG (Bcl‐2‐ΔTM [1]; ± SD, 3 trials): -8.49 ± 0.33 kcal/mol
- TΔS (Bcl‐2‐ΔTM [1]; 3 trials): 4.64 ± 0.11 kcal/mol
- ΔH (Bcl‐2‐ΔTM [1]; 3 trials): -3.85 ± 0.33 kcal/mol
- enthalpic contribution less favorable than with ^AcBax‐BH3^ΔB (Bcl‐2‐ΔTM [1]; versus ^AcBax‐BH3^ΔB): 1.58 kcal/mol
- difference in ΔG, binds more favorably than ^AcScTx‐Bax^ΔΔ,8–26 (Bcl‐2‐ΔTM [1]; versus ^AcScTx‐Bax^ΔΔ,8–26): ~1 kcal/mol

Compound: CC[C@H](NC(=O)[C@H](CCC(=O)O)NC(=O)[C@H](CO)NC(=O)[C@H](CC(C)C)NC(=O)[C@H](CCCCN)NC(=O)[C@H](CCCCN)NC(=O)[C@@H](NC(=O)[C@H](CO)NC(=O)CNC(C)=O)[C@@H](C)O)C(=O)N[C@@H](CC(C)C)C(=O)N[C@@H](CCCCN)C(=O)N[C@@H](CCCNC(=N)N)C(=O)N[C@H](C(=O)NCC(=O)N[C@@H](CC(=O)O)C(=O)N[C@@H](CCC(=O)O)C(=O)N[C@@H](CC(C)C)C(=O)N[C@@H](CC(=O)O)C(=O)N[C@@H](CO)C(=O)N[C@@H](CC(N)=O)C(=O)N[C@@H](CCSC)C(N)=O)[C@@H](C)CC [^AcBax‐BH3^ΔB, reference compound] (HELM PEPTIDE1{[ac].G.S.T.K.K.L.S.E.[Abu].L.K.R.I.G.D.E.L.D.S.N.M.[am]}$$$$V2.0)
- n (number of sites) (Bcl‐2‐ΔTM [1]; 3 trials): 0.93 ± 0.05
- ΔG (Bcl‐2‐ΔTM [1]; ± SD, 3 trials): -10.02 ± 0.89 kcal/mol
- Kd (Bcl‐2‐ΔTM [1]; binding buffer pH 8.0, reciprocal of K a, ± SD, 3 trials): 191 ± 27.5 nM
- TΔS (Bcl‐2‐ΔTM [1]; 3 trials): 4.58 ± 0.20 kcal/mol
- ΔH (Bcl‐2‐ΔTM [1]; 3 trials): -5.43 ± 0.73 kcal/mol
- difference in ΔG, complex more stable than that of ^AcScTx‐Bax^ΔΔΔ (Bcl‐2‐ΔTM [1]; versus ^AcScTx‐Bax^ΔΔΔ): 1.53 kcal/mol
- IC50 (Bcl‐2‐ΔTM [2]): 141 nM
